Where two headings read alike, the source gives them in different places.
Tests used:
[1] = target: hERG potassium channel (Homo sapiens (Human), UniProt Q12809); assay: hERG whole-cell patch-clamp in stably transfected CHO cells; format: cell-based; conditions: for selectivity ratio: pH 7.4, hERG IC20 / hTAAR1 EC50, read-out: hERG selectivity ratio versus hTAAR1 EC50; for IC50: patch-clamp, CHO cells, 36±1° C.
Protocol: The whole-cell patch-clamp technique was used to investigate the effects of the test items on hERG (human-ether-a-go-go related gene) potassium channels in stably transfected CHO cells near physiological temperature (36±1° C.). The effects of compounds on hERG K^+-current parameters were evaluated at 4 concentrations (0.3-3-30-300 μM) in at least 3 CHO cells stably expressing the hERG channel. For electrophysiological measurements cells were seeded onto 35 mm sterile culture dishes containing 2 ml culture medium without Hygromycin B. Cells were cultivated at a density that enabled single cells (without visible connections to neighbouring cells) to be measured. Cells were incubated at 37° C. in a humidified atmosphere with 5% CO2 (rel. humidity about 95%). The cells were continuously maintained in and passaged in sterile culture flasks containing nutrient mixture F-12 (DMEM/F-12 with L-Glutamine) supplemented with 10% foetal bovine serum and 10% penicillin/streptomycin solution. […] The 35 mm culture dishes upon which cells were seeded at a density allowing single cells to be recorded were placed on the dish holder of the microscope and continuously perfused (at approximately 1 ml/min) with the bath solution (sodium chloride 150 mM, potassium chloride 4 mM, calcium chloride 1.2 mM, magnesium chloride 1 mM, HEPES 10 mM, pH (NaOH) 7.4) at near physiological temperature (36±1° C.). After formation of a Gigaohm seal between the patch electrodes and individual hERG stably transfected CHO cells (pipette resistance range: 2.0 MΩ-7.0 Mω; seal resistance range: >1 Gω) the cell membrane across the pipette tip was ruptured to assure electrical access to the cell interior (whole-cell patch-configuration). In case the quality of the seal was poor, the process of seal formation was repeated with a different cell and a new pipette. […] This voltage protocol was run at least 10 times at intervals of 10 s. If current density was judged to be too low for measurement, another cell was recorded. […] During wash-in of the test item the voltage protocol indicated above was run continuously again at 10 s intervals until the steady-state level of block was reached. The four test item concentrations of the compound were applied sequentially to 3 cells in a cumulative manner. […] Based on the IC50 value the IC20 was estimated. Each concentration of the test item was analyzed in three experiments (n=3).

[2] = target: human TAAR1 (Homo sapiens (Human), UniProt Q96RJ0); assay: cAMP functional assay in HEK293 cells expressing human TAAR1; format: cell-based; conditions: for hTAAR1 efficacy*: % agonist activity, β-phenylethylamine = 100% agonism; for EC50: cAMP, HEK293 cells expressing human TAAR1, read-out: hTAAR1 EC50
Protocol: For the construction of expression plasmids the coding sequences of human TAAR 1 were amplified from genomic DNA essentially as described by Lindemann et al.[14]. The Expand High Fidelity PCR System (Roche Diagnostics) was used with 1.5 mM Mg^2+ and purified PCR products were cloned into pCR2.1-TOPO cloning vector (Invitrogen) following the instructions of the manufacturer. PCR products were subcloned into the pIRESneo2 vector (BD Clontech, Palo Alto, Calif.), and expression vectors were sequence verified before introduction in cell lines.
HEK293 cells (ATCC # CRL-1573) were cultured essentially as described by Lindemann et al. (2005). For the generation of stably transfected cell lines HEK293 cells were transfected with the pIRESneo2 expression plasmids containing the TAAR coding sequences (described above) with Lipofectamine 2000 (Invitrogen) according to the instructions of the manufacturer, and 24 hrs post transfection the culture medium was supplemented with 1 mg/ml G418 (Sigma, Buchs, Switzerland). After a culture period of about 10 d clones were isolated, expanded and tested for responsiveness to trace amines (all compounds purchased from Sigma) with the cAMP Biotrak Enzyme immunoassay (EIA) System (Amersham) following the non-acetylation EIA procedure provided by the manufacturer.
cAMP measurements were performed as described previously (Revel et al., Proc. Natl. Acad. Sci. USA 2011, 108, 8485-8490). In brief, cells that expressed human TAAR1 were plated on 96-well plates (BIOCOAT 6640; Becton Dickinson, Allschwil, Switzerland) and incubated for 20 h at 37° C. Prior to stimulation of the cells with a broad concentration range of agonists for 30 min at 37° C., the cells were washed with PBS and preincubated with PBS that contained 1 mM 3-isobutyl-1-methylxanthine for 10 min at 37° C. and 5% CO2. Stimulation with 0.2% DMSO was set as the basal level, and the effect of 30 μM β-PEA was set as the maximal response. Subsequently, the cells were lysed, and cAMP assays were performed according to the manufacturer's instructions (cAMP kit; Upstate/Millipore, Schaffhausen, Switzerland). Finally, the plates were read with a luminometer (1420 Multilabel counter; PerkinElmer, Schwerzenbach, Switzerland), and the amount of cAMP was calculated. The results were obtained from at least three independent experiments. Experiments were run in duplicate or triplicate. EC50 values are presented as mean ±standard deviation (in μM).

[3] = target: human DAT (Homo sapiens (Human), UniProt Q01959); assay: Binding to dopamine transporter (DAT) in vitro, [3H]-WIN35,428 SPA; conditions: for Ki: [3H]-WIN35,428 radioligand; for DAT selectivity ratio versus hTAAR1 EC50: DAT Ki / hTAAR1 EC50
Protocol: Binding to dopamine transporter (DAT) in vitro. Human embryonic kidney (HEK) 293 cells (Invitrogen, Zug, Switzerland) stably transfected with human DAT were cultured. The cells were collected and washed three times with phosphate-buffered saline (PBS). The pellets were frozen at −80° C. The pellets were then resuspended in 400 ml of 20 mM HEPES-NaOH, pH 7.4, that contained 10 mM EDTA at 4° C. After homogenization with a Polytron (Kinematica, Lucerne,
Switzerland) at 10000 rotations per minute (rpm) for 15 s, the homogenates were centrifuged at 48000×g for 30 min at 4° C. Aliquots of the membrane stocks were frozen at −80° C. All assays were performed at least three times. The test compounds were diluted in […] of binding buffer (252 mM NaCl, 5.4 mM KCl, 20 mM Na2HPO4, 3.52 mM KH2PO4, pH 7.4) and 10 point dilution curves were made and transferred to 96-well white polystyrene assay plates (Sigma-Aldrich, Buchs, Switzerland). […] Twenty microliters of binding buffer alone in the assay plate defined the total binding, whereas binding in the presence of 10 μM indatraline defined nonspecific binding. Frozen DAT membrane stocks were thawed and resuspended to a concentration of approximately 0.04 mg protein/ml binding buffer (1:1 diluted in H2O) using a polytron tissue homogenizer. The membrane homogenates (40 μg/ml) were then lightly mixed for 5-30 min with polyvinyl toluene […] wheat germ agglutinin-coated scintillation proximity assay (WGASPA; Amersham Biosciences) beads at 7.7 mg beads/ml homogenate. One hundred thirty microliters of the membrane/bead mixture were added to each well of the assay plate that contained radioligand and test compounds (final volume in each well, 200 μl) to start the assay, which was incubated for approximately 2 h at room temperature with agitation. The assay plates were then counted in the PVT SPA counting mode of a Packard Topcount. […] Non-linear regression was used to fit the data to sigmoid curves and determine IC50 values for binding and uptake. Ki values for binding and uptake were calculated using the following Cheng-Prusoff equation: Ki=IC50/(1+[S]/Km).

[4] = estimated based on the IC50 value
[5] = human, CHO cells stably expressing hERG
[6] = human, CHO cells stably expressing hERG, pH 7.4, estimated based on the IC50 value

Chain of human TAAR1 (Q96RJ0 whole entry): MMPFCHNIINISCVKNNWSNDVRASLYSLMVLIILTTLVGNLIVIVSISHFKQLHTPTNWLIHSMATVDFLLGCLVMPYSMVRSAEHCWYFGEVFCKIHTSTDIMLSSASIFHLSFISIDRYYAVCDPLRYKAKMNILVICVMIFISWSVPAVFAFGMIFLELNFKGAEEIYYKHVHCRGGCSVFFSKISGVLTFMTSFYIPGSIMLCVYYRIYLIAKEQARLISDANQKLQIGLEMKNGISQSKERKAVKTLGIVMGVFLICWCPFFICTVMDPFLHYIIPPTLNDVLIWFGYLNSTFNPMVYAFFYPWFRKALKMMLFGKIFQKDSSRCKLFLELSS
Chain of hERG potassium channel (Q12809 whole entry): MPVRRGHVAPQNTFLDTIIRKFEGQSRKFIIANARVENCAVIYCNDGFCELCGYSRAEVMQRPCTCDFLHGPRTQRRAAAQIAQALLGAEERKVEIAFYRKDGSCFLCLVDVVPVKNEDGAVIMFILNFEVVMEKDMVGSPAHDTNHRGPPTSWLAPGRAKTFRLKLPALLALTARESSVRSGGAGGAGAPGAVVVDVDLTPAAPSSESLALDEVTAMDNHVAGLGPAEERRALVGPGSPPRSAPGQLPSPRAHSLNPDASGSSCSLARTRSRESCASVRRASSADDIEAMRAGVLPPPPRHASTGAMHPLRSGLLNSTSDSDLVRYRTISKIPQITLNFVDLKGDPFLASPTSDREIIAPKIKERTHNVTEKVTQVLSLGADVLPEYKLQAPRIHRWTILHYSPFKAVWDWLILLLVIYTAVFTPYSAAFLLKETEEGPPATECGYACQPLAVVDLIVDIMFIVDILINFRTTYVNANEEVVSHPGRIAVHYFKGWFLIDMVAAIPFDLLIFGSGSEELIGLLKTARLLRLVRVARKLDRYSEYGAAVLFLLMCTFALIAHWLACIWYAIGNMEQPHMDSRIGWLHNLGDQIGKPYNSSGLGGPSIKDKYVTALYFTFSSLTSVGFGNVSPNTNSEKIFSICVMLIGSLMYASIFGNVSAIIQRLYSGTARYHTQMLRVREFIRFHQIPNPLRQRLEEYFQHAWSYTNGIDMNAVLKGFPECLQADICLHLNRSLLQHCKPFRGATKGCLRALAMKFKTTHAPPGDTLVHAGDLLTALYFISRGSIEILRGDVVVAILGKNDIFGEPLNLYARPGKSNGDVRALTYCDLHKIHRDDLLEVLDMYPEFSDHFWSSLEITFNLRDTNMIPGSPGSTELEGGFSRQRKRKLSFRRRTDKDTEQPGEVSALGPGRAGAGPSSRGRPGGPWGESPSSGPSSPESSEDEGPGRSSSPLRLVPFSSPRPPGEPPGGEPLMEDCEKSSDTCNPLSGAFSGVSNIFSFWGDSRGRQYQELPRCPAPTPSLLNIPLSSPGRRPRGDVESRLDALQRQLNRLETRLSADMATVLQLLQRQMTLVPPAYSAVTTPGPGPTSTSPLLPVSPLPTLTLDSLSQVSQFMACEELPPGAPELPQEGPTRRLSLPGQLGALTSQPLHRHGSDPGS
Chain of human DAT (Q01959 whole entry): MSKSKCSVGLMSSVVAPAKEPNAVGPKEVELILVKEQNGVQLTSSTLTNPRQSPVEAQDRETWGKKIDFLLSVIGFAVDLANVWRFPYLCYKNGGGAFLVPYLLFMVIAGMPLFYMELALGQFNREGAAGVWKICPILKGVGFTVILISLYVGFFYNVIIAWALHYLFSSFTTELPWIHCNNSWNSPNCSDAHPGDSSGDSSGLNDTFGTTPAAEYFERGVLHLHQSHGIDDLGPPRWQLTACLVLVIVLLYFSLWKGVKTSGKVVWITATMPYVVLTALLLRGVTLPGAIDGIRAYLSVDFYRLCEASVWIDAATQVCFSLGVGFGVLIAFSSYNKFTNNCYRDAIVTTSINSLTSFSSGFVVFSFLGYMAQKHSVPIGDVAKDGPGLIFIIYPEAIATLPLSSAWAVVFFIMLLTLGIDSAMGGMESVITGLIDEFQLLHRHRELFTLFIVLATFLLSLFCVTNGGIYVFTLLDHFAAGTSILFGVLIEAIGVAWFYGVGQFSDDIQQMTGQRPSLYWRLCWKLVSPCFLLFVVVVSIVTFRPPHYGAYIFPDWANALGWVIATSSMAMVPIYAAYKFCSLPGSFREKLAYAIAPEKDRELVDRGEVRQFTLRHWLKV

Row | EC50 ([2]; listed as example 11) [nM] | Ki ([3]; listed as example 6) [µM] | EC50 ([2]; listed as example 9) [nM] | Compound | Ratio hERG IC20/hTAAR1 EC50 [1] | IC20 [1, 4] [µM] | selectivity ratio [1, 5] | IC50 [1] [µM] | hTAAR1 efficacy* [2] [%] | EC50 [2] [nM] | Ratio DAT Ki/hTAAR1 EC50 [3] | Ki [3] [µM] | IC20 [1, 6] [µM] | DAT selectivity ratio versus hTAAR1 EC50 [3] [fold] | EC50 ([2]; listed as example 17) [nM] | EC50 ([2]; listed as example 12) [nM] | EC50 ([2]; listed as example 13) [nM] | EC50 ([2]; listed as example 14) [nM]
1 |  |  |  | O=C(Nc1ccc([C@H]2CNCCO2)cc1)c1ccn(-c2ccccc2)n1 [Example 20, N-[4-[(2S)-Morpholin-2-yl]phenyl]-1-phenylpyrazole-3-carboxamide] | 1 | 2.49 | 1 | 10.8 | 59 | 2480 | >11 | > 26.1 |  |  |  |  |  | 
2 |  |  |  | O=C(Nc1ccc([C@H]2CNCCO2)cc1)c1ccc(Cl)nc1 [Example 4, 6-Chloro-N-[4-[(2S)-morpholin-2-yl]phenyl]pyridine-3-carboxamide] | 201 |  |  | 49.7 | 49 | 61.9 | 40 | 2.5 | 12.4 | 40 |  |  |  | 
3 | 203 |  |  | O=C(Nc1ccc([C@H]2CNCCO2)cc1)c1ccc(C(F)(F)F)nc1 [Example 11, N-[4-[(2S)-Morpholin-2-yl]phenyl]-6-(trifluoromethyl)pyridine-3-carboxamide] |  |  |  |  | 46 | 203 |  | 2.33 |  |  |  |  |  | 
4 |  |  |  | O=C(Nc1ccc([C@H]2CNCCO2)cc1)c1csc(-c2ccccc2)n1 [Example 16, N-[4-[(2S)-Morpholin-2-yl]phenyl]-2-phenyl-1,3-thiazole-4-carboxamide] | 5 | 3.35 | 5 | 8.98 | 35 | 666 | 24 | 16.2 |  |  |  |  |  | 
5 |  |  |  | Cc1cc(C(=O)Nc2ccc([C@H]3CNCCO3)cc2)ccn1 [Example 17, 2-Methyl-N-[4-[(2S)-morpholin-2-yl]phenyl]pyridine-4-carboxamide] | 193 |  |  | 518 | 45 | 673 | 15 | 10.3 | 130 | 15 | 673 |  |  | 
6 |  |  |  | O=C(Nc1ccc([C@H]2CNCCO2)cc1)c1ccc(Cl)cn1 [Example 12, 5-Chloro-N-[4-[(2S)-morpholin-2-yl]phenyl]pyridine-2-carboxamide] | 15 |  | 15 | 14.3 | 40 | 212 | 8 | 1.78 | 3.21 | 8 |  | 212 |  | 
7 |  |  |  | Cc1nc(C(=O)Nc2ccc([C@H]3CNCCO3)cc2)cs1 [Example 19, N-[4-[(2S)-Morpholin-2-yl]phenyl]2-methyl-1,3-thiazole-4-carboxamide] | 8 | 8.32 | 8 | 60.5 | 32 | 1020 | 21 | 21.9 |  |  |  |  |  | 
8 |  |  |  | O=C(Nc1ccc([C@H]2CNCCO2)cc1)c1cncc(Cl)c1 [Example 13, 5-Chloro-N-[4-[(2S)-morpholin-2-yl]phenyl]pyridine-3-carboxamide] | 23 | 9.14 | 23 | 66 | 37 | 404 | 3 | 1.31 |  | 3 |  |  | 405 | 
9 |  |  |  | Cc1cc(C(=O)Nc2ccc([C@H]3CNCCO3)cc2)cc(Cl)n1 [Example 14, 2-Chloro-6-methyl-N-[4-[(2S)-morpholin-2-yl]phenyl]pyridine-4-carboxamide] | 48 |  |  | 73.2 | 53 | 447 | 16 | 7.32 | 21.6 | 16 |  |  |  | 447
10 |  | 5.9 |  | O=C(Nc1ccc([C@H]2CNCCO2)cc1)c1cnc(-c2ccccc2)s1 [Example 6, N-[4-[(2S)-Morpholin-2-yl]phenyl]-2-phenyl-1,3-thiazole-5-carboxamide] |  |  |  |  | 30 | 80 |  | 5.93 |  |  |  |  |  | 
11 |  |  |  | CCc1[nH]nc(C(=O)Nc2ccc([C@@H]3CNCCO3)cc2)c1C [Example 2, 5-Ethyl-4-methyl-N-[4-[(2R)-morpholin-2-yl]phenyl]-1H-pyrazole-3-carboxamide] |  |  |  |  | 38 |  |  |  |  |  |  |  |  | 
12 |  |  | 144 | O=C(Nc1ccc([C@H]2CNCCO2)cc1)c1cnc(Cl)c(Cl)c1 [Example 9, 5,6-Dichloro-N-[4-[(2S)-morpholin-2-yl]phenyl]pyridine-3-carboxamide] |  |  |  |  | 32 | 144 |  | 0.48 |  |  |  |  |  | 
